Measured values taken from patent US9657031B2, “Ant-ligands molecules and biological applications” (MITOLOGICS, priority 2008, dated 2017).

Assays:
lymphocytes (PBMC) = experiment: Toxicity on lymphocytes (PBMC); type: cell-based; conditions: doses below 400 μM; data not shown
[1] = system: HT-29 and BxPC3 tumor cell lines; experiment: Multiparametric analysis of cell death (flow cytometry) on tumor cell lines; type: cell-based, human; conditions: for effect of caspase / cathepsin B inhibitors on apoptosis induced by the ANT-ligand: z-VAD-fmk, Q-VD-OPH, Z-FA-fmk, Bax/Bak deletion
Protocol: FIG. 2: The ANT-ligand is pro-apoptotic on HT-29 and BxPC3 tumor cell lines • (A) Chemical structure of compound 1 • (B) Multiparametric analysis (chromatin condensation, mitochondrial transmembrane potential (L′m) loss, plasma membrane permeabilization, phosphatidylserine exposure) of cellular effects of the ANT-ligand on BxPC3 cell line after 48 h treatment. • (C) Effects of compound 1 on ADP/ATP translocator activity of ANT measured on isolated mitochondria from mice liver or HT-29 tumor cell line (IC50 is given in μM based on ANT assays) and on viability of HT-29 and BxPC3 tumor cell lines (LD50 is given in μM based on MTT assays at 48 h).
(§1) MTT assay was used to evaluate the viability of a large range of human cell lines in presence of small molecules. Dose-response experiments allow us to determine a lethal-dose 50 (LD50; dose killing 50% of the cellular population) for each compound on a particular cell type after a 48-hour incubation. This viability assay is used as a first screening assay to identify cell-permeant molecules able to induce cell death (cytotoxic) or growth delay (cytostatic) among the 956 molecules of the ANT-ligands library. We have chosen to select molecules having an LD50 below 50 μM on HT-29 (colon adenocarcinoma) or BxPC3 (pancreatic adenocarcinoma) cell lines. These molecules come into the ANT activity screening assays and the efficient ANT-inhibitors (IC50 below 50 μM) are investigated for their mechanisms of cell death induction. Indeed, the characterisation of cell death consists in a multiparametric analysis of treated-cells by flow cytometry (FacsCalibur, Becton Dickinson) where can be measured (1) the loss of mitochondrial trans-membrane potential (L′m; DIOC6 labelling), (2) the plasma membrane permeabilization (Propidium Iodide labeling) and (3) the phosphatidylserines exposure (Annexin-V-fitc labelling).

[2] = system: S. cerevisiae WT (W303) and JL1-3 (ΔANT 1, 2 & 3) strains; experiment: Clonogenic assays on S. cerevisiae strains deficient for ANT isoforms; type: cell-based; conditions: ΔANT 1, 2 & 3 vs WT; viability at 48 h after 2 h incubation
Protocol: The importance of ANT isoforms in cytotoxic effects of the selected ANT-ligands has been evaluated using S. cerevisiae strains deficient for ANT isoforms (FIG. 5). Clonogenic assays on these strains are used to ensure that cytotoxic effects of the ANT-ligands are really due to the expression of ANTs in the cells.
FIG. 5: Target validation of compound 1 using ANT-deficient yeasts • (A) Quantitative estimation of yeasts viability at 48 h after 2 h incubation with compound 1 • (B) Illustration of WT (W303) and JL1-3 (LANT1, 2 and 3) yeast strains growth on plates at 48 h after 2 h incubation with compound 1.

[3] = system: Wi-38 (normal lung fibroblasts); experiment: Multiparametric analysis of cellular effects on Wi-38 cell line; type: cell-based; conditions: Wi-38, compared to HT-29, BxPC3, 48 h and 72 h treatments
Protocol: FIG. 4: Compound 1 induces low toxicity on normal fibroblast Wi-38 • A) Expression pattern of ANT isoforms in HT-29, BxPC3 and Wi-38 (normal lung fibroblasts) cell lines after RT-PCR reaction on total RNA • (B) Multiparametric analysis (mitochondrial transmembrane potential, plasma membrane permeabilization, phosphatidylserine exposure) of cellular effects of the ANT-ligand on Wi-38 cell line after 48 h and 72 h treatments.
as §1, with “We have chosen to select molecules having an LD50 below 50 μM on HT-29 (colon adenocarcinoma) or BxPC3 (pancreatic adenocarcinoma) cell lines. These molecules come into the ANT activity screening assays and the efficient ANT-inhibitors (IC50 below 50 μM) are investigated for their mechanisms of cell death induction.” left out

## O=C(O)CCCCn1c(SCc2ccccc2Cl)nc2ccsc2c1=O [Compound 1]
Lymphocytes (PBMC)
  toxicity on lymphocytes (PBMC): no sign of toxicity
[1]; multiparametric analysis
  apoptosis hallmarks (mitochondrial potential loss, phosphatidylserine exposure, plasma membrane permeabilization, chromatin condensation): induces classical hallmarks of apoptosis
[1]; tumor cells
  mitochondrial trans-membrane potential: induces dissipation of the mitochondrial trans-membrane potential
[1]
  effect of caspase / cathepsin B inhibitors on apoptosis induced by the ANT-ligand: inhibited by pan-caspase inhibitors (z-VAD-fmk, Q-VD-OPH) but not by the cathepsin B inhibitor (Z-FA-fmk)
[1]; listed as compound 1
  effect of caspase / cathepsin B inhibitors on apoptosis induced by the ANT-ligand: abolished by caspase inhibitors
[2]
  resistance of ANT-deficient yeast strain versus wild-type: more resistant to the compound 1 than the wild-type (WT) control strain
[3]
  toxicity on normal lung fibroblasts: low toxicity
[3]; listed as compound 1
  toxicity on normal lung fibroblasts: minor compared to tumor cells
